Experimental data from patent publication US10544104B2, “Compositions and methods for treating toxoplasmosis, cryptosporidiosis, and other apicomplexan protozoan related diseases” (University of Washington through its Center for …, priority 2010, dated 2020).
“Also recorded” adds a separate entry of the source. Read-outs that look alike come from different tables or passages of the source.

Columns and labels:
[1] = test system: C. parvum; assay: C. parvum infection of HCT-8 cells (rRNA RT-PCR); format: cell-based, Cryptosporidium parvum
[2] = test system: T. gondii; assay: microbe, parasite or virus in culture; details: Toxoplasma gondii, read-out: Parasite Proliferation Assay EC50 T. gondii
[3] = test system: C. parvum; assay: Immunosuppressed (SCID-beige) mouse C. parvum model; format: in vivo, Cryptosporidium parvum; details: oral gavage once a day, days 3-7 and 10-14
Experimental: Shown are mean of the parasite numbers detected in 25 mg of stool from each mouse, by qRT-PCR.

[4] = test system: human fibroblast; assay: Fibroblast cytotoxicity / replication (Alamar blue); format: cell-based; details: concentration at which toxicity (T) was observed
[5] = in vitro; details: human
[6] = target: T1, TgCDPK1 (Toxoplasma gondii, UniProt Q9BJF5); format: biochemical
T1 sequence (Q9BJF5 1-507): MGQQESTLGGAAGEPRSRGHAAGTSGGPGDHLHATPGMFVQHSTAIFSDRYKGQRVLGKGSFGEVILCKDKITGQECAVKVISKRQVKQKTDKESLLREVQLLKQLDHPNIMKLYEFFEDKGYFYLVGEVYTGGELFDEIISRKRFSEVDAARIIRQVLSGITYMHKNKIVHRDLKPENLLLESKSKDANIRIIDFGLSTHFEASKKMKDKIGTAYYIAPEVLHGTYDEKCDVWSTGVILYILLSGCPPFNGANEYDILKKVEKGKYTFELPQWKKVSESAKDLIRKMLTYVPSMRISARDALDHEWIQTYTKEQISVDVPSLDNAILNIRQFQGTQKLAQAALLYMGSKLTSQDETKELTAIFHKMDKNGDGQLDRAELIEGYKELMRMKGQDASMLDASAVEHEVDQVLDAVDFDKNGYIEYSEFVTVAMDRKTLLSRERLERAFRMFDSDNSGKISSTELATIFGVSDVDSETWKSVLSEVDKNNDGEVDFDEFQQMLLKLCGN

[7] = in vitro; details: human; remark: listed apart in the source
[8] = in vitro; details: human; remark: listed apart in the source
[9] = in vitro; details: human; remark: listed apart in the source
[10] = test system: P. berghei; design: species or system Plasmodium berghei; details: in vivo
[11] = test system: P. falciparum; assay: microbe, parasite or virus in culture; details: Plasmodium falciparum, read-out: Proliferation Blocking P. falciparum (EC50, μM)
[12] = target: PfCDPK1 (Plasmodium falciparum (isolate 3D7), UniProt P62344); assay: biochemical; details: read-out: PfCDPK1 (% inhibition @ 3 uM)
[13] = target: PfCDPK4 (Plasmodium falciparum (isolate 3D7), UniProt Q8IBS5); assay: biochemical; details: read-out: PfCDPK4 (% inhibition @ 3 uM)
[14] = test system: HC 2998; assay: Growth inhibition / toxicity, colorectal carcinoma HC 2998
[15] = test system: CRL8155; assay: Growth inhibition / toxicity, human lymphocyte CRL8155
[16] = test system: SF539; assay: Growth inhibition / toxicity, glioma derived SF539
[17] = test system: HL-60; assay: Growth inhibition / toxicity, promyelocytic leukemia HL-60
[18] = test system: P. falciparum NF54 gametocytes; format: cell-based, Plasmodium falciparum
[19] = test system: P. berghei expressing PfCDPK4-2x-myc; design: species or system Plasmodium berghei; details: in vivo
[20] = Solubility in buffers of various pH; format: physicochemical
[21] = target: CpCDPK1 (Cryptosporidium parvum (strain Iowa II), UniProt A3FQ16); format: biochemical
CpCDPK1, sequence (A3FQ16 1-538): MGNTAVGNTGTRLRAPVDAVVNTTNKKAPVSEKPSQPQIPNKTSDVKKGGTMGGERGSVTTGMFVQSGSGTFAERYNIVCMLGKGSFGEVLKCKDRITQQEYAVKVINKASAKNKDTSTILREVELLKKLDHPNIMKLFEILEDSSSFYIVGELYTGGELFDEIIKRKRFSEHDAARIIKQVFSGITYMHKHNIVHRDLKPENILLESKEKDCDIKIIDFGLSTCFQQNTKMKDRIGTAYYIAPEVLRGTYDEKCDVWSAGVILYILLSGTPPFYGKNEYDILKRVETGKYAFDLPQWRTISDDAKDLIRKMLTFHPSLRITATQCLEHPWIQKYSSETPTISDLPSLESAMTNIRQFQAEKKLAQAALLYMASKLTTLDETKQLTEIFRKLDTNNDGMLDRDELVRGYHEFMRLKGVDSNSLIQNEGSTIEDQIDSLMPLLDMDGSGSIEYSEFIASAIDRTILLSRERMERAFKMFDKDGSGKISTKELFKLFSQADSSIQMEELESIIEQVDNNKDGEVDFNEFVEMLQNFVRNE

[22] = target: T1, TgCDPK1; format: biochemical; details: read-out: Km of substrates
[23] = HCC2998 (HC 2998) colorectal carcinoma cells
[24] = HL-60 human promyelocytic leukemia cells

## CCOc1ccc2cc(-c3nn(CC4CCN(C)CC4)c4ncnc(N)c34)ccc2c1 [Compound 150, 3-(6-ethoxynaphthalen-2-yl)-1-((1-methylpiperidin-4-yl)methyl)-1H-pyrazolo[3,4-d]pyrimidin-4-amine]
[1]; Cryptosporidium parvum, HCT-8, read-out: Parasite Proliferation Assay EC50 C. parvum
  EC50: 0.54 µM
[2]
  EC50: 0.137 µM
[3]
  parasites in stool at the end of treatment (qRT-PCR): not detected
  rebound of parasite burden after treatment: not
[4]
  Observed HFF Toxicity (T at concentration): T at 25 μM

## CC(C)n1nc(-c2ccc(Cl)c(Cl)c2)c2c(N)ncnc21 [Compound 7c, 3-(3,4-dichlorophenyl)-1-isopropyl-1H-pyrazolo[3,4-d]pyrimidin-4-amine]
[5]; [23]
  GI50: […]
[6]
  inhibition of TgCDPK1 (in words): potent against both enzymes
[7]; SF539 glioma-derived cells
  GI50: […]
[8]; [24]
  GI50: […]
[9]; CRL8155 human lymphocyte cells
  GI50: […]

## CC(C)(C)n1nc(-c2ccc3ccccc3c2)c2c(N)ncnc21 [NA-PP2, reference compound]
[10]
  formation of oocysts in A. stephensi fed on treated mice: hundreds of oocysts per mosquito

## CC(C)(C)C(=O)Nc1ccc(-c2nn(C(C)(C)C)c3ncnc(N)c23)cc1 [Compound 60, N-(4-(4-amino-1-tert-butyl-1H-pyrazolo[3,4-d]pyrimidin-3-yl)phenyl)pivalamide]
[11]
  EC50: > 10 µM

## CC(C)(C)n1nc(-c2ccc(NC(=O)C3CCCC3)cc2)c2c(N)ncnc21 [Compound 63, N-(4-(4-amino-1-tert-butyl-1H-pyrazolo[3,4-d]pyrimidin-3-yl)phenyl)cyclopentanecarboxamide]
[11]
  EC50: > 10 µM

## COc1ccc2cc(-c3nn(C(C)C)c4ncnc(N)c34)ccc2c1 [Compound 7q, 1-isopropyl-3-(6-methoxynaphthalen-2-yl)-1H-pyrazolo[3,4-d]pyrimidin-4-amine]
[5]; [23]
  GI50: > 10 µM
[7]; SF539 glioma-derived cells
  GI50: > 10 µM
[8]; [24]
  GI50: > 10 µM
[9]; CRL8155 human lymphocyte cells
  GI50: > 10 µM
[11]
  EC50: > 10 µM

## CC(C)(C)n1nc(-c2cccc3ccccc23)c2c(N)ncnc21 [Compound 1, 1-tert-butyl-3-(naphthalen-1-yl)-1H-pyrazolo[3,4-d]pyrimidin-4-amine]
[12]
  inhibition at 3 µM: 51%
[5]
  GI50: > 10 µM
[13]
  inhibition at 3 µM: 25%
[14]
  Cell Toxicity HCC2998, % at 25 μM: <30% at 25 μM
[7]
  GI50: > 10 µM
[15]
  Cell Toxicity CRL8155, % at 25 μM: <30% at 25 μM
[16]
  Cell Toxicity SF539, % at 25 μM: <30% at 25 μM
[17]
  Cell Toxicity HL60, % at 25 μM: <30% at 25 μM
[8]
  GI50: > 10 µM
[9]
  GI50: > 10 µM

## CCOc1ccc2cc(-c3nn(CC4CCNCC4)c4ncnc(N)c34)ccc2c1 [Compound 29, 3-(6-ethoxynaphthalen-2-yl)-1-(piperidin-4-ylmethyl)-1H-pyrazolo[3,4-d]pyrimidin-4-amine]
[10]
  exflagellation: sufficient to block exflagellation
  formation of oocysts in A. stephensi fed on treated mice: completely blocked
  impact on asexual parasitaemia or gametocyte rates: no impact
[18]
  P. falciparum exflagellation: complete suppression; also recorded: prevented the exflagellation
  exflagellation events, repeat experiment: suppressed completely
  infection of A. stephensi midguts: prevented
  infective sporozoites in salivary glands: complete absence
  prevalence of oocyst infections: reduced the prevalence
[3]
  parasites in stool at the end of treatment (qRT-PCR): not detected
  rebound of parasite burden after treatment: slowly
[19]
  duration of complete suppression of exflagellation: 14 h
  exflagellation 20 hours after dosing: some exflagellation was observed
  exflagellation in blood samples from treated mice: complete suppression; also recorded: completely suppressed
[20]
  Experimental Solubility pH 7.4: 49 μM

## 6-(4-amino-1-(piperidin-4-ylmethyl)-1H- pyrazolo[3,4-d]pyrimidin-3-yl)-N,N- dimethylquinolin-2-amine [Compound 68]
[21]
  IC50: > 3 µM

## CCOc1ccc2cc(-c3nn(C(C)C)c4ncnc(N)c34)ccc2c1 [Compound 7r, 3-(6-ethoxynaphthalen-2-yl)-1-isopropyl-1H-pyrazolo[3,4-d]pyrimidin-4-amine]
[11]
  EC50: > 50 µM

## CC(C)(C)n1nc(-c2ccc(Cl)cc2)c2c(N)ncnc21 [Compound 146]
[12]
  inhibition at 3 µM: 99%
[13]
  inhibition at 3 µM: 95%

## CC(C)(C)n1nc(-c2ccc3ccccc3c2)c2c(N)ncnc21 [Compound 2, 1-tert-butyl-3-(naphthalen-2-yl)-1H-pyrazolo[3,4-d]pyrimidin-4-amine]
[5]; [23]
  GI50: […]
[1]; inhibitor at time of infection and one hour after infection
  C. parvum parasite levels in HCT-8 cells: most potent effect
[7]; SF539 glioma-derived cells
  GI50: […]
[8]; [24]
  GI50: […]
[9]; CRL8155 human lymphocyte cells
  GI50: […]

## COc1ccc2cc(-c3nn(CC4CCNCC4)c4ncnc(N)c34)ccc2c1 [Compound 28, 3-(6-methoxynaphthalen-2-yl)-1-(piperidin-4-ylmethyl)-1H-pyrazolo[3,4-d]pyrimidin-4-amine]
[11]
  EC50: 31.9 µM
[20]
  Experimental Solubility pH 7.4: 56 μM

## Nc1ncnc2c1ncn2[C@@H]1O[C@H](COP(=O)(O)OP(=O)(O)OP(=O)(O)O)[C@@H](O)[C@H]1O [ATP]
[6]; read-out: Km for ATP
  Km: 10 µM
[21]; read-out: Km for ATP
  Km: 9 µM
[22]
  Km: 10 µM

## CC(C)CC(=O)Nc1ccc(-c2nn(C(C)(C)C)c3ncnc(N)c23)cc1 [Compound 62, N-(4-(4-amino-1-tert-butyl-1H-pyrazolo[3,4-d]pyrimidin-3-yl)phenyl)-3-methylbutanamide]
[11]
  EC50: > 10 µM

## CCCC(=O)Nc1ccc(-c2nn(C(C)(C)C)c3ncnc(N)c23)cc1 [Compound 61, N-(4-(4-amino-1-tert-butyl-1H-pyrazolo[3,4-d]pyrimidin-3-yl)phenyl)butyramide]
[11]
  EC50: 7 µM

## NC[C@@H]1O[C@H](O[C@H]2[C@@H](O)[C@H](O[C@@H]3[C@@H](O)[C@H](N)C[C@H](N)[C@H]3O[C@H]3O[C@H](CO)[C@@H](O)[C@H](O)[C@H]3N)O[C@@H]2CO)[C@H](N)[C@@H](O)[C@@H]1O [Paromomycin, reference compound]
[3]
  parasites in stool at the end of treatment (qRT-PCR): not detected
  rebound of parasite burden after treatment: quickly rebounded
